According to ChEMBL document CHEMBL1201862, “PubChem BioAssay data set” (2004):
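Five concentrations, 48 hours, 96-well plates. Here, GI50 denotes the concentration required for 50% inhibition of growth.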 Calls of active or inactive are those of the source. Cut-off read from the data, not from the text of the source: active = GI50 up to about 1.1 µM and inactive = higher.

Tests used:
Experiment in all cases: NCI anticancer screen, dose series, 48 h
HCT-116 = test system: HCT-116
SF-539 = test system: SF-539
U-251 = test system: U-251
TK-10 = test system: TK-10
OVCAR-8 = test system: OVCAR-8
NCI-H460 = test system: NCI-H460
MCF7 = test system: MCF7
HCT-15 = test system: HCT-15
UACC-62 = test system: UACC-62
SNB-19 = test system: SNB-19
NCI-H226 = test system: NCI-H226
SN12C = test system: SN12C
SF-295 = test system: SF-295
SW-620 = test system: SW-620
HCC 2998 = test system: HCC 2998
SR = test system: SR
NCI-H23 = test system: NCI-H23
OVCAR-5 = test system: OVCAR-5
CCRF-CEM = test system: CCRF-CEM
MDA-N = test system: MDA-N
HOP-92 = test system: HOP-92
A498 = test system: A498
KM12 = test system: KM12
MDA-MB-435 = test system: MDA-MB-435
MDA-MB-231 = test system: MDA-MB-231
SK-MEL-5 = test system: SK-MEL-5
ACHN = test system: ACHN
SK-MEL-2 = test system: SK-MEL-2
BT-549 = test system: BT-549
LOX IMVI = test system: LOX IMVI
OVCAR-4 = test system: OVCAR-4
COLO 205 = test system: COLO 205
IGROV-1 = test system: IGROV-1
HOP-62 = test system: HOP-62
SNB-75 = test system: SNB-75
UO-31 = test system: UO-31
T47D = test system: T47D
NCI/ADR-RES = test system: NCI/ADR-RES
CAKI-1 = test system: CAKI-1
PC-3 = test system: PC-3
UACC-257 = test system: UACC-257
NCI-H522 = test system: NCI-H522
Hs-578T = test system: Hs-578T
M14 = test system: M14
SK-OV-3 = test system: SK-OV-3
DU-145 = test system: DU-145
OVCAR-3 = test system: OVCAR-3
786-0 = test system: 786-0
K562 = test system: K562
EKVX = test system: EKVX
Malme-3M = test system: Malme-3M
HT-29 = test system: HT-29
MOLT-4 = test system: MOLT-4
SK-MEL-28 = test system: SK-MEL-28
SF-268 = test system: SF-268
A549 = test system: A549
HL-60 = test system: HL-60
RPMI-8226 = test system: RPMI-8226
RXF 393 = test system: RXF 393

Measured: GI50

CCCNc1[nH]c(C(=O)c2ccccc2)c(N)c1C(=S)Nc1ccccc1
inactive: HCT-116 > 100 µM | SF-539 > 100 µM | U-251 > 100 µM | TK-10 > 100 µM | OVCAR-8 > 100 µM | NCI-H460 > 100 µM | MCF7 > 100 µM | UACC-62 > 100 µM | SNB-19 > 100 µM | NCI-H226 > 100 µM | SN12C > 100 µM | SF-295 > 100 µM | SW-620 > 100 µM | HCC 2998 > 100 µM | SR > 100 µM | NCI-H23 > 100 µM | OVCAR-5 > 100 µM | CCRF-CEM > 100 µM | MDA-N > 100 µM | HOP-92 > 100 µM | A498 > 100 µM | KM12 > 100 µM | MDA-MB-435 > 100 µM | MDA-MB-231 > 100 µM | SK-MEL-5 > 100 µM | ACHN > 100 µM | SK-MEL-2 > 100 µM | BT-549 > 100 µM | LOX IMVI > 100 µM | OVCAR-4 > 100 µM | COLO 205 > 100 µM | IGROV-1 > 100 µM | HOP-62 > 100 µM | SNB-75 > 100 µM | UO-31 > 100 µM | T47D > 100 µM | NCI/ADR-RES > 100 µM | CAKI-1 > 100 µM | PC-3 > 100 µM | UACC-257 > 100 µM | NCI-H522 > 100 µM | Hs-578T > 100 µM | M14 > 100 µM | SK-OV-3 > 100 µM | DU-145 > 100 µM | OVCAR-3 > 100 µM | 786-0 > 100 µM | K562 > 100 µM | EKVX > 100 µM | Malme-3M > 100 µM | HT-29 > 100 µM | MOLT-4 > 100 µM | SK-MEL-28 > 100 µM | SF-268 > 100 µM | A549 > 100 µM | HL-60 > 100 µM
> 100 µM: HCT-15

Nc1nc(O)c2ncn(C3C=CC(CO)C3)c2n1 (configuration not stated)
> 100 µM: HCT-15
inactive: HCT-116 > 100 µM | SF-539 > 100 µM | U-251 > 100 µM | TK-10 > 100 µM | OVCAR-8 > 100 µM | NCI-H460 > 100 µM | RPMI-8226 > 100 µM | MCF7 > 100 µM | UACC-62 > 100 µM | SNB-19 > 100 µM | NCI-H226 > 100 µM | SN12C > 100 µM | SF-295 > 100 µM | SW-620 > 100 µM | HCC 2998 > 100 µM | SR > 100 µM | NCI-H23 > 100 µM | OVCAR-5 > 100 µM | MDA-N > 100 µM | HOP-92 > 100 µM | A498 > 100 µM | KM12 > 100 µM | MDA-MB-435 > 100 µM | MDA-MB-231 > 100 µM | RXF 393 > 100 µM | SK-MEL-5 > 100 µM | ACHN > 100 µM | SK-MEL-2 > 100 µM | BT-549 > 100 µM | OVCAR-4 > 100 µM | COLO 205 > 100 µM | IGROV-1 > 100 µM | HOP-62 > 100 µM | SNB-75 > 100 µM | UO-31 > 100 µM | T47D > 100 µM | NCI/ADR-RES > 100 µM | CAKI-1 > 100 µM | PC-3 > 100 µM | UACC-257 > 100 µM | NCI-H522 > 100 µM | Hs-578T > 100 µM | M14 > 100 µM | SK-OV-3 > 100 µM | DU-145 > 100 µM | OVCAR-3 > 100 µM | 786-0 > 100 µM | K562 > 100 µM | EKVX > 100 µM | Malme-3M > 100 µM | HT-29 > 100 µM | SK-MEL-28 > 100 µM | SF-268 > 100 µM | A549 > 100 µM
